Experimental data reported in US9427402B2, “Preparation for improving solubility of poorly soluble drug” (Shionogi & Co. Ltd., priority 2010, dated 2016).
Values after ≈ are worked out from the molar mass of the structure shown. Like-named read-outs stand apart in the source and are kept apart here.

Test: Solubility evaluation of drugs (buffer solutions, 37° C., HPLC)
Format: physicochemical
Conditions: for solubility in words: acidic / neutral solvents, conclusion from Table 1; for solubility at 3 h: thermodynamic from solid
Description: A solvent was added to a drug, and ultrasonic irradiation treatment was performed on the resulting solution. The solution was agitated for 3 hours at 37° C. After 3 hours, the sample was filtered with a 0.45 μm filter, and the concentration of the drug in the filtrate was measured by a HPLC method. The solvents used were 100 mM of a citrate buffer solution (pH 4), 100 mM of a phosphate buffer (pH 7) and 100 mM of carbonic acid buffer solution (pH 9).

[1] = aqueous buffer, 100 mM citrate buffer solution (pH 4), 37° C., 3 hours, read-out: Solubility pH 4
[2] = aqueous buffer, 100 mM phosphate buffer (pH 7), 37° C., 3 hours, read-out: Solubility pH 7

| solubility at 3 h (aqueous buffer, 100 mM carbonic acid buffer solution (pH 9), 37° C., 3 hours, read-out: Solubility pH 9) [µg/mL] | solubility at 3 h [1] [µg/mL] | solubility at 3 h [2] [µg/mL] | solubility at 3 h (buffer solution, 37 °C, pH 7, aqueous buffer, solvent with a pH of 7 or less, read-out: solubility in a solvent with a pH of 7 or less) [µg/mL] | SMILES | solubility in words |
| --- | --- | --- | --- | --- | --- |
| 7.7 (≈ 13 µM) | ≤ 0.0004 | ≤ 0.0004 | ≤ 0.0004 | CCCCCCO[C@@H](C)c1cccc(-c2csc(NC(=O)c3cc(Cl)c(/C=C(\C)C(=O)O)c(Cl)c3)n2)c1OC [Compound C-3B, (S)-(E)-3-(2,6-dichloro-4-{4-[3-(1-hexyloxyethyl)-2-methyloxyphenyl]thiazole 2-ylcarbamoyl}phenyl)-2-methylacrylic acid] | poorly soluble in an acidic and a neutral solvents |
|  | 0.5 (≈ 1.4 µM) | 25 (≈ 69.9 µM) |  | COc1ccc2c(c1)c(CC(=O)O)c(C)n2C(=O)c1ccc(Cl)cc1 [Indomethacin, indomethacin, reference compound] | poorly soluble in an acidic solvent |
